The compounds below were run against T1, CAS3 (Sordaria macrospora, UniProt F7VU04) (assay: biochemical). Conditions: read-out: KI* (nM) / CAS3 ^c / β.
T1 construct: gene SMAC_03179; primers imply N-terminus (M)MPVTNEE and C-terminus KTVRVV-LE-His6
T1 sequence (F7VU04 1-174): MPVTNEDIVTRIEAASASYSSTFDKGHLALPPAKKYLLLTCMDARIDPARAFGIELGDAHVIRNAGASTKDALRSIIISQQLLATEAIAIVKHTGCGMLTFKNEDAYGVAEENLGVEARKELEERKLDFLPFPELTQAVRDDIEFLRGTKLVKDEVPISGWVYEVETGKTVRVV
Procedure: An Applied Photophysics stopped-flow instrument was used for assaying the CA catalyzed CO2 hydration activity. […] The initial rates of the CA-catalyzed CO2 hydration were followed for a period of 10–100 s for each assay. […] For each measurement, six traces of the initial 5%–10% of the reaction were used for determining the initial velocity. Then, 10-fold decreasing dilution of inhibitor solutions, ranging from 1 nM and 100 µM were employed for determining the inhibition constants. Uncatalyzed rates were determined in the same manner and subtracted from total observed rates. Stock solutions of inhibitor (0.1 mM) were prepared in distilled deionized water, and dilutions up to 1 nM were done thereafter with the assay buffer. Inhibitor and enzyme solutions were preincubated together for 15 min at room temperature before to assay for allowing for the formation of E–I complexes. The inhibition constants were obtained by non-linear least-squares methods using the Cheng–Prusoff equation, and they represent the mean from at least three different determinations. The human isoforms hCA I, II were assayed in the same conditions as above except that the working pH was 7.4 HEPES buffer with phenol red as an indicator [21, 22].

SMILES	Ki [nM]
NCCc1ccc(S(N)(=O)=O)cc1 [compound 6]	441 ± 14
NS(=O)(=O)c1cc(Cl)cc(Cl)c1O [compound 10]	350 ± 13
Nc1cc(C(F)(F)F)c(S(N)(=O)=O)cc1S(N)(=O)=O [compound 11]	235 ± 16
Nc1cc(Cl)c(S(N)(=O)=O)cc1S(N)(=O)=O [compound 12]	90 ± 5.7

Continued, values first:

Ki [nM]	SMILES
83 ± 6	NS(=O)(=O)c1cccc(S(N)(=O)=O)c1 [compound 3]
560 ± 21	Cc1ccc(S(N)(=O)=O)cc1 [compound 4]
726 ± 30	NCc1ccc(S(N)(=O)=O)cc1 [compound 5]
585 ± 23	Nc1ccc(S(N)(=O)=O)cc1F [compound 7]
2080 ± 61	Nc1ccc(S(N)(=O)=O)cc1Cl [compound 8]
712 ± 28	Nc1ccc(S(N)(=O)=O)cc1Br [compound 9]
605 ± 23	NS(=O)(=O)c1ccc(O)cc1 [compound 15]
507 ± 26	NS(=O)(=O)c1ccc(CCO)cc1 [compound 17]
226 ± 13	NS(=O)(=O)c1ccc(C(=O)O)cc1 [compound 18]
91 ± 4.4	Nc1nccc(Nc2ccc(S(N)(=O)=O)cc2)n1 [compound 19]
85 ± 2.7	Nc1ccc(S(=O)(=O)Nc2nnc(S(N)(=O)=O)s2)cc1 [compound 20]
95 ± 3.9	NS(=O)(=O)c1ccc(CCNS(=O)(=O)c2ccc([N+](=O)[O-])cc2CO)cc1 [compound 21]
85 ± 2.6	Nc1ccc(S(=O)(=O)Nc2ccc(S(N)(=O)=O)cc2)cc1 [compound 22]
89 ± 3.4	Nc1ccc(S(=O)(=O)NCc2ccc(S(N)(=O)=O)cc2)cc1 [compound 23]
84 ± 1.5	Nc1ccc(S(=O)(=O)NCCc2ccc(S(N)(=O)=O)cc2)cc1 [compound 24]

What follows are compounds tested against T2, CAS3 (Sordaria macrospora, UniProt F7VU04) (assay: stopped-flow CO2 hydration inhibition assay). Conditions: not given.
T2 construct: gene SMAC_03179; primers imply N-terminus (M)MPVTNEE and C-terminus KTVRVV-LE-His6
Format: biochemical

Ki [nM]	SMILES
669 ± 29	Cc1ccc(-c2cc(C(F)(F)F)nn2-c2ccc(S(N)(=O)=O)cc2)cc1 [CLX]
191 ± 12	O=C1NS(=O)(=O)c2ccccc21 [SAC]

SMILES	Ki [nM]
NS(=O)(=O)c1cc2c(cc1Cl)NCNS2(=O)=O [HCT]	545 ± 41

Same assay, conditions: read-out: KI* (nM) / CAS3 ^c / β

SMILES	Ki [nM]
CCN[C@H]1CN(CCCOC)S(=O)(=O)c2sc(S(N)(=O)=O)cc21 [BRZ, brinzolamide]	61 ± 1.4
NS(=O)(=O)c1nnc(NS(=O)(=O)c2ccccc2)s1 [BZA, benzolamide]	54 ± 0.9
NS(=O)(=O)c1cc(Cl)c(Cl)c(S(N)(=O)=O)c1 [DCP, dichlorophnamide]	73 ± 3
CC(=O)N=c1sc(S(N)(=O)=O)nn1C [MZA, methazolamide]	91 ± 6.2
CCN1CCCC1CNC(=O)c1cc(S(N)(=O)=O)ccc1OC (centres unmarked) [SLP]	493 ± 27
CC1(C)O[C@@H]2[C@@H](CO[C@@]3(COS(N)(=O)=O)OC(C)(C)O[C@@H]23)O1 [TPM]	363 ± 23
NS(=O)(=O)Cc1noc2ccccc12 [ZNS]	710 ± 40
Nc1nnc(S(N)(=O)=O)s1 [compound 13, deacetylated precursor of acetazolamide]	88 ± 2.9
Cn1nc(S(N)(=O)=O)sc1=N [compound 14, deacetylated precursor of methazolamide]	94 ± 4.1

Now from value to compound:

Ki [nM]	SMILES
94 ± 4.6	NS(=O)(=O)c1ccc(S(=O)(=O)Nc2cccc3c(Cl)c[nH]c23)cc1 [IND]
4840 ± 257	NS(=O)(=O)c1ccc(N2CCCCS2(=O)=O)cc1 [SLT, sulthiame]
831 ± 38	Cc1onc(-c2ccccc2)c1-c1ccc(S(N)(=O)=O)cc1 [VLX]
82 ± 3.7	NS(=O)(=O)c1ccc(CO)cc1 [compound 16, 4-hydroxymethyl-benzenesulfonamide]

— publication PMC7179226, “Sulfonamide Inhibition Studies of the β-Class Carbonic Anhydrase CAS3 from the Filamentous Ascomycete Sordaria macrospora” (Molecules, 2020)
